Test results reported in paper PMC12566703, “Design, Synthesis, In Vitro and In Silico Biological Evaluation of New Pyridine-2,5-Dicarboxylates Esters Bearing Natural Source Fragments as Anti-Trypanosomatid Agents” (Pharmaceutics, 2025).
Where two headings read alike, the source gives them in different places.

Legend:
[1] = Cytotoxicity assay, MTT method, 48 h; assay type: cell-based, murine; details: mouse, J774.2 macrophage cells, J774.2 cell line, read-out: Macrophage J774.2 CC50 (µM ± SD)
Description: A cytotoxicity assay was performed using the murine macrophage J774.2 cell line, which was recloned from the original ascites and solid tumor J774.1 (according to the manufacturer). The cells were cultured in RPMI medium supplemented with 10% SBF, 100 U […] penicillin, 100 µg/mL streptomycin, and glutamine (2 mM), and 5% CO2 atmosphere. The medium was changed every 2–3 days. Macrophages were used at 1 × 10^6 cells and were incubated with compounds at different concentrations (0.75–100 µM, respectively) at 37 °C for 48 h in a 5% CO2 atmosphere. DMSO was used as a negative control (0.2%). The metabolic activity of macrophages was determined by the MTT method. The percentage of cell viability was calculated, and the half-maximal cytotoxic concentration (CC50) was determined using probit analysis. Three independent assays were conducted in triplicate.

[2] = test system: T. cruzi (A1) epimastigotes; assay: In vitro trypanocidal activity, Alamar Blue assay, 48 h; assay type: cell-based, Trypanosoma cruzi; details: for Selectivity Index T. cruzi A1: CC50 (J774.2)/IC50; for IC50: 48 h, read-out: T. cruzi IC50 (µM ± SD) A1
Description: (§1) Both strains were maintained in liver infusion tryptose (LIT) medium supplemented with 10% FBS and 0.1% penicillin-streptomycin. They were preserved by transferring 1 × 10^6 parasites/mL into a new culture medium every week. […] The metabolic activity was determined by the Alamar Blue assay. Briefly, after the incubation period, 20 µL of 2.5 mM resazurin solution was added to each well and incubated for 3 h. Three independent experiments were performed in triplicate. The half-maximum inhibitory concentration (IC50) was determined using probit analysis.

[3] = test system: T. cruzi (NINOA) epimastigotes; assay: as above; assay type: cell-based, Trypanosoma cruzi; details: for Selectivity Index T. cruzi NINOA: CC50 (J774.2)/IC50; for IC50: 48 h, read-out: T. cruzi IC50 (µM ± SD) NINOA; for IC50 / Trypanocidal activity class in words, NINOA strain: epimastigotes, NINOA strain; for Trypanocidal activity class in words, NINOA strain: classes by IC50
Description: as §1

[4] = test system: L. mexicana (MHOM/MX/2017/UABJO17FCQEPS) (FCQEPS) promastigotes; assay: In vitro leishmanicidal activity, MTT method, 48 h; assay type: cell-based, Leishmania mexicana; details: for Selectivity Index L. mexicana FCQEPS: CC50 (J774.2)/IC50; for IC50: Leishmania mexicana, 48 h, read-out: L. mexicana IC50 (µM ± SD) FCQEPS
Description: (§2) To determine the leishmanicidal activity of pyridine-2,5-dicarboxylates, the parasites, in their logarithmic growth phase (5 × 10^5 parasites/mL), were cultured in 96-well microliter plates with the corresponding pyridine-2,5-dicarboxylate compound at different concentrations (0.78–100 µM). Compounds were dissolved in DMSO in a final volume of 200 µL for 48 h at 26 °C. Parasites treated with DMSO (0.2%) were used as a negative control, while treatments with Glucantime and Amphotericin B, at the same concentrations, were used as positive controls. The metabolic activity of the cells was determined using the 3-(4,5-Dimethylthiazol-2-yl)-2,5-diphenyltetrazolium bromide (MTT) method. IC50 was determined using probit analysis. Three independent experiments were performed in triplicate, and the data were analyzed for statistical significance (p < 0.05) using Biostat 5.3.0 software.

[5] = test system: L. mexicana (MNYC/BZ/62/M379) (M379) promastigotes; assay: In vitro leishmanicidal activity, MTT method, 48 h; assay type: cell-based, Leishmania mexicana; details: for Selectivity Index L. mexicana M379: CC50 (J774.2)/IC50; for IC50: Leishmania mexicana, 48 h, read-out: L. mexicana IC50 (µM ± SD) M379; for IC50 / Leishmanicidal activity class in words, M379 strain: promastigotes, M379 strain; for Leishmanicidal activity class in words, M379 strain: classes by IC50
Description: as §2

[6] = Trypanosoma cruzi, epimastigotes, A1 strain

SMILES | CC50 at 48 h [1] [µM] | Selectivity Index T. cruzi A1 [2] | IC50 [2, 6] [µM] | Trypanocidal activity class in words, A1 strain ([2]; epimastigotes, A1 strain, classes by IC50) | Selectivity Index T. cruzi NINOA [3] | Selectivity Index L. mexicana FCQEPS [4] | IC50 ([4]; promastigotes, FCQEPS strain) [µM] | Selectivity Index L. mexicana M379 [5] | IC50 [5] [µM] | Leishmanicidal activity class in words, M379 strain [5] | IC50 ([3]; Trypanosoma cruzi) [µM] | Trypanocidal activity class in words, NINOA strain [3] | IC50 [3] [µM] | IC50 ([2]; epimastigotes, A1 strain) [µM] | Leishmanicidal activity class in words, FCQEPS strain ([4]; promastigotes, FCQEPS strain, classes by IC50)
CCOC(=O)c1nc(C)c(C(=O)OCC=Cc2ccccc2)cc1-c1ccc(C)cc1 [Compound 7b] | > 200 | >1 | > 200 | completely lose their trypanocidal activity | >2.0 | >1.7 | 116.71 ± 0.03 | >1 | > 200 | did not have antiparasitic activity |  |  |  |  | 
CCOC(=O)c1nc(C)c(C(=O)OCC=Cc2ccccc2)cc1-c1ccc(F)cc1 [Compound 7c] | > 200 | >8.8 | 22.8 ± 0.69 |  | >3.1 | >1 | > 200 | >1 | > 200 | inactive | 63.1 ± 1.64 |  |  |  | 
CCOC(=O)c1nc(C)c(C(=O)O[C@@H]2C[C@@H](C)CC[C@@H]2C(C)C)cc1-c1ccccc1 [Compound 8a] | > 200 | >1 | > 200 |  | >1 | >2.4 | 82.7 | >2.5 | 79.1 |  |  | inactive |  |  | 
CCOC(=O)c1nc(C)c(C(=O)O[C@@H]2C[C@@H](C)CC[C@@H]2C(C)C)cc1-c1ccc(C)cc1 [Compound 8b] | > 200 | >3.9 |  |  | >1.8 | >1 |  | >1 |  |  | 106.9 ± 0.5 | slight activity | > 200 |  | 
CCOC(=O)c1nc(C)c(C(=O)O[C@@H]2C[C@@H](C)CC[C@H]2C(C)C)cc1-c1ccc(F)cc1 [Compound 8c, 2-Ethyl 5-((1R,2S,5S)-2-isopropyl-5-methylcyclohexyl) 3-(4-fluorophenyl)-6-methylpyridine-2,5-dicarboxylate] | > 200 | >9.2 |  |  | >4.3 | >2.2 | 90.9 ± 5 | >1 | > 200 |  | ≤ 56.7 |  | 46 ± 3.33 |  | 
CCOC(=O)c1nc(C)c(C(=O)OC2C[C@@H]3CC[C@@]2(C)C3(C)C)cc1-c1ccccc1 (stereo partly drawn) [Compound 9a] | > 200 | >8.0 | < 29 |  | >3.6 | >1 | > 200 | >1 | > 200 | did not have antiparasitic activity | 55.8 ± 2.5 | moderately active (moderately active (IC50 41 to 100 µM)) |  | 25 ± 2.98 | did not have leishmanicidal activity
CCOC(=O)c1nc(C)c(C(=O)O[C@@H]2C[C@H]3CC[C@@]2(C)C3(C)C)cc1-c1ccc(C)cc1 [Compound 9b, 2-Ethyl 5-((1S,2R,4R)-1,7,7-trimethylbicyclo[2.2.1]heptan-2-yl) 6-methyl-3-(p-tolyl)pyridine-2,5-dicarboxylate] | > 200 | >5.2 | < 40 |  |  | >2.5 |  | >5.0 |  |  | < 40 |  | 22.3 ± 1.6 | 38.5 | 
CCOC(=O)c1nc(C)c(C(=O)OC2C[C@@H]3CC[C@@]2(C)C3(C)C)cc1-c1ccc(F)cc1 (stereo partly drawn) [Compound 9c] | > 200 | >1 | > 200 |  | >7.6 | >1 | > 200 | >1 | > 200 | inactive | 26.2 |  | 26.2 ± 1.55 |  | 
